Measurements as given in US8772250B2, “Compositions and methods for treating ischemia and ischemia-reperfusion injury” (Ischemix, LLC, priority 2010, dated 2014).
Like-named read-outs stand apart in the source and are kept apart here.

Experiment: Pharmacokinetic evaluation in humans
Type: in vivo
Details: human; for clearance / Cmax / Vd / half-life / AUC(0-t) / AUC(0-inf): plasma
Protocol: Plasma and urine RLip-EA-OH concentrations were measured at BASi, Inc. (West Lafayette, Ind.) using a LC/MS/MS method with positive turbo ion spray, in the multiple reaction-monitoring mode. The quantifiable range for human plasma was 1.00 to 500 ng/mL and QC samples were included at 3.00, 75.0 and 375 ng/mL.
The PK population included subjects who received RLip-EA-OH and had ≧1 post-dose PK measurement. […] Plasma samples from 24 subjects (6 RLip-EA-OH subjects per cohort) were analyzed (Tables 16 and 17).

Question: Which clearance (150 mg, compartmental, read-out: CL, Median (converted)) does the source give for `C[C@H](NC(=O)[C@H](CCC(=O)O)NC(=O)CCCC[C@@H]1CCSS1)C(=O)O` [RLip-EA-OH, N-(R)-lipoyl-L-glutamyl-L- alanine] here?
Answer: 363 mL/min

Question: What about the clearance (150 mg, compartmental, read-out: CL, Minimum, maximum) of the same compound?
Answer: 260 to 512 mL/min

Question: And the Cmax (150 mg, compartmental, read-out: Estimated Cmax, Mean (SD))?
Answer: 18100 ng/mL

Question: And the Cmax (150 mg, compartmental, read-out: Estimated Cmax, Median)?
Answer: 18400 ng/mL

Question: What about the Cmax (150 mg, compartmental, read-out: Estimated Cmax, Minimum, maximum) of the same compound?
Answer: 14200 to 20600 ng/mL

Question: What about the Vd (150 mg, compartmental, read-out: Vss, Mean (SD)) of the same compound?
Answer: 13 L

Question: And the Vd (150 mg, compartmental, read-out: Vss, Median)?
Answer: 13 L

Question: What about the Vd (150 mg, compartmental, read-out: Vss, Minimum, maximum) of the same compound?
Answer: 9 to 17 L

Question: What about the half-life (150 mg, compartmental, read-out: t1/2, Mean (SD) (converted)) of the same compound?
Answer: 1.8 h

Question: And the half-life (150 mg, compartmental, read-out: t1/2, Median (converted))?
Answer: 1.4 h

Question: What about the half-life (150 mg, compartmental, read-out: t1/2, Minimum, maximum) of the same compound?
Answer: 1.1 to 3.3 h

Question: And the AUC(0-t) (150 mg, noncompartmental, read-out: AUC0-t, Mean (SD))?
Answer: 6980 ng·h/mL

Question: And the AUC(0-t) (150 mg, noncompartmental, read-out: AUC0-t, Median)?
Answer: 6900 ng·h/mL

Question: What about the AUC(0-t) (150 mg, noncompartmental, read-out: AUC0-t, Minimum, maximum) of the same compound?
Answer: 4970 to 9330 ng·h/mL

Question: What about the AUC(0-inf) (150 mg, noncompartmental, read-out: AUCinf, Mean (SD)) of the same compound?
Answer: 6990 ng·h/mL

Question: And the AUC(0-inf) (150 mg, noncompartmental, read-out: AUCinf, Median)?
Answer: 6920 ng·h/mL

Question: What about the AUC(0-inf) (150 mg, noncompartmental, read-out: AUCinf, Minimum, maximum) of the same compound?
Answer: 4980 to 9340 ng·h/mL

Question: And the clearance (150 mg, noncompartmental, read-out: CL, Mean (SD) (converted))?
Answer: 372 mL/min

Question: What about the clearance (150 mg, noncompartmental, read-out: CL, Median (converted)) of the same compound?
Answer: 363 mL/min

Question: What about the clearance (150 mg, noncompartmental, read-out: CL, Minimum, maximum) of the same compound?
Answer: 268 to 502 mL/min

Question: What about the Cmax (150 mg, noncompartmental, read-out: Cmax, Mean (SD)) of the same compound?
Answer: 17100 ng/mL

Question: And the Cmax (150 mg, noncompartmental, read-out: Cmax, Median)?
Answer: 17000 ng/mL

Question: What about the Cmax (150 mg, noncompartmental, read-out: Cmax, Minimum, maximum) of the same compound?
Answer: 14900 to 20000 ng/mL

Question: What about the Vd (150 mg, noncompartmental, read-out: Vss, Mean (SD)) of the same compound?
Answer: 13.6 L

Question: And the Vd (150 mg, noncompartmental, read-out: Vss, Median)?
Answer: 13.2 L

Question: And the Vd (150 mg, noncompartmental, read-out: Vss, Minimum, maximum)?
Answer: 9.9 to 16.6 L

Question: And the half-life (150 mg, noncompartmental, read-out: t1/2, Mean (SD) (converted))?
Answer: 1.23 h

Question: And the half-life (150 mg, noncompartmental, read-out: t1/2, Median (converted))?
Answer: 1.25 h

Question: And the half-life (150 mg, noncompartmental, read-out: t1/2, Minimum, maximum)?
Answer: 0.97 to 1.52 h

Question: And the AUC(0-inf) (300 mg, compartmental, read-out: AUCinf, Mean (SD))?
Answer: 16400 ng·h/mL

Question: What about the AUC(0-inf) (300 mg, compartmental, read-out: AUCinf, Median) of the same compound?
Answer: 16400 ng·h/mL

Question: And the AUC(0-inf) (300 mg, compartmental, read-out: AUCinf, Minimum, maximum)?
Answer: 11500 to 22600 ng·h/mL

Question: What about the clearance (300 mg, compartmental, read-out: CL, Mean (SD) (converted)) of the same compound?
Answer: 323 mL/min

Question: What about the clearance (300 mg, compartmental, read-out: CL, Median (converted)) of the same compound?
Answer: 305 mL/min

Question: And the clearance (300 mg, compartmental, read-out: CL, Minimum, maximum)?
Answer: 222 to 435 mL/min

Question: What about the Cmax (300 mg, compartmental, read-out: Estimated Cmax, Mean (SD)) of the same compound?
Answer: 46300 ng/mL

Question: What about the Cmax (300 mg, compartmental, read-out: Estimated Cmax, Median) of the same compound?
Answer: 43400 ng/mL

Question: And the Cmax (300 mg, compartmental, read-out: Estimated Cmax, Minimum, maximum)?
Answer: 31000 to 70100 ng/mL

Question: What about the Vd (300 mg, compartmental, read-out: Vss, Mean (SD)) of the same compound?
Answer: 11 L

Question: What about the Vd (300 mg, compartmental, read-out: Vss, Median) of the same compound?
Answer: 11 L

Question: And the Vd (300 mg, compartmental, read-out: Vss, Minimum, maximum)?
Answer: 8 to 16 L

Question: And the half-life (300 mg, compartmental, read-out: t1/2, Mean (SD) (converted))?
Answer: 1.5 h

Question: What about the half-life (300 mg, compartmental, read-out: t1/2, Median (converted)) of the same compound?
Answer: 1.2 h

Question: And the half-life (300 mg, compartmental, read-out: t1/2, Minimum, maximum)?
Answer: 1 to 2.5 h

Question: And the AUC(0-t) (300 mg, noncompartmental, read-out: AUC0-t, Mean (SD))?
Answer: 16500 ng·h/mL

Question: And the AUC(0-t) (300 mg, noncompartmental, read-out: AUC0-t, Median)?
Answer: 16500 ng·h/mL

Question: And the AUC(0-t) (300 mg, noncompartmental, read-out: AUC0-t, Minimum, maximum)?
Answer: 11600 to 23100 ng·h/mL

Question: What about the AUC(0-inf) (300 mg, noncompartmental, read-out: AUCinf, Mean (SD)) of the same compound?
Answer: 16500 ng·h/mL

Question: And the AUC(0-inf) (300 mg, noncompartmental, read-out: AUCinf, Median)?
Answer: 16500 ng·h/mL

Question: And the AUC(0-inf) (300 mg, noncompartmental, read-out: AUCinf, Minimum, maximum)?
Answer: 11600 to 23100 ng·h/mL

Question: And the clearance (300 mg, noncompartmental, read-out: CL, Mean (SD) (converted))?
Answer: 322 mL/min

Question: And the clearance (300 mg, noncompartmental, read-out: CL, Median (converted))?
Answer: 303 mL/min

Question: And the clearance (300 mg, noncompartmental, read-out: CL, Minimum, maximum)?
Answer: 217 to 430 mL/min

Question: And the Cmax (300 mg, noncompartmental, read-out: Cmax, Mean (SD))?
Answer: 42200 ng/mL

Question: And the Cmax (300 mg, noncompartmental, read-out: Cmax, Median)?
Answer: 42200 ng/mL

Question: What about the Cmax (300 mg, noncompartmental, read-out: Cmax, Minimum, maximum) of the same compound?
Answer: 32000 to 58100 ng/mL

Question: And the Vd (300 mg, noncompartmental, read-out: Vss, Mean (SD))?
Answer: 11.7 L

Question: And the Vd (300 mg, noncompartmental, read-out: Vss, Median)?
Answer: 11.1 L

Question: What about the Vd (300 mg, noncompartmental, read-out: Vss, Minimum, maximum) of the same compound?
Answer: 8.9 to 15.1 L

Question: What about the half-life (300 mg, noncompartmental, read-out: t1/2, Mean (SD) (converted)) of the same compound?
Answer: 1.45 h

Question: And the half-life (300 mg, noncompartmental, read-out: t1/2, Median (converted))?
Answer: 1.14 h

Question: And the half-life (300 mg, noncompartmental, read-out: t1/2, Minimum, maximum)?
Answer: 0.99 to 2.35 h

Question: What about the clearance (300 mg, read-out: CL (converted)) of the same compound?
Answer: 322 mL/min

Question: And the half-life (300 mg, read-out: mean terminal-phase t1/2 (converted))?
Answer: 1.45 h

Question: What about the AUC(0-inf) (across doses 20 to 300 mg, read-out: AUCinf) of the same compound?
Answer: 583 to 16500 ng·h/mL

Question: What about the half-life (at the mg dose, read-out: mean terminal-phase t1/2 (converted)) of the same compound?
Answer: 0.86 h

Question: And the Vd (decreased with increasing dose, read-out: Vss)?
Answer: 12 to 18 L

Question: What about the Vd (read-out: volume of distribution of the central compartment (Vc)) of the same compound?
Answer: ~6 L

Question: What about the “V1, Mean (SD)” value (20 mg, compartmental) of the same compound?
Answer: 6.61 (3.20) L

Question: What about the “V1, Median” value (20 mg, compartmental) of the same compound?
Answer: 6.13 L

Question: And the “% Excreted Unchanged, Mean (SD)” value (20 mg, noncompartmental)?
Answer: 28.5 (9.6) %

Question: What about the “% Excreted Unchanged, Median” value (20 mg, noncompartmental) of the same compound?
Answer: 31.0%

Question: What about the “V1, Mean (SD)” value (60 mg, compartmental) of the same compound?
Answer: 6.62 (1.65) L

Question: What about the “V1, Median” value (60 mg, compartmental) of the same compound?
Answer: 6.69 L

Question: And the “% Excreted Unchanged, Mean (SD)” value (60 mg, noncompartmental)?
Answer: 39.1 (4.0) %

Question: What about the “% Excreted Unchanged, Median” value (60 mg, noncompartmental) of the same compound?
Answer: 40.6%

Question: What about the “V1, Mean (SD)” value (150 mg, compartmental) of the same compound?
Answer: 6.09 (1.42) L

Question: What about the “V1, Median” value (150 mg, compartmental) of the same compound?
Answer: 5.86 L

Question: And the “% Excreted Unchanged, Mean (SD)” value (150 mg, noncompartmental)?
Answer: 32.5 (13.9) %

Question: What about the “% Excreted Unchanged, Median” value (150 mg, noncompartmental) of the same compound?
Answer: 33.3%

Question: What about the “V1, Mean (SD)” value (300 mg, compartmental) of the same compound?
Answer: 4.91 (1.56) L

Question: And the “V1, Median” value (300 mg, compartmental)?
Answer: 5.59 L

Question: What about the “% Excreted Unchanged, Mean (SD)” value (300 mg, noncompartmental) of the same compound?
Answer: 43.6 (8.8) %

Question: What about the “% Excreted Unchanged, Median” value (300 mg, noncompartmental) of the same compound?
Answer: 46.3%
